In ChEMBL document CHEMBL1152465, “Comparative evaluation of the inhibitory activities of a series of pyrimidinedione congeners that inhibit human immunodeficiency virus types 1 and 2” (Antimicrob Agents Chemother, 2008):
The source made the active and inactive calls. The rule behind the calls is not given here.

What was measured:
Format in all cases: functional, organism-based
[1] = tested on: Human immunodeficiency virus 1; assay: Antiviral activity against HIV1 infected in human HeLa cells expressing CD4-LTR assessed as inhibition of viral entry-related beta galactosidase expression pretreated 2 hrs before viral infection measured after 48 hrs of infection by MAGI assay
[2] = tested on: Human immunodeficiency virus 1; assay: Antiviral activity against HIV1 infected in human HeLa cells expressing CD4-LTR assessed as inhibition of viral entry-related beta galactosidase expression treated for 2 hrs followed by drug wash out measured after 48 hrs by MAGI assay
[3] = tested on: Human immunodeficiency virus 1; assay: Antiviral activity against HIV1 infected in human HeLa cells expressing CD4-LTR assessed as inhibition of viral entry-related beta galactosidase expression at > 10 ug/ml followed by drug wash out and viral infection measured after 48 hrs by MAGI assay

**Q.** With `COc1cc(-c2ccc(/N=N/c3ccc4c(S(=O)(=O)O)cc(S(=O)(=O)O)c(N)c4c3O)c(OC)c2)ccc1/N=N/c1ccc2c(S(=O)(=O)O)cc(S(=O)(=O)O)c(N)c2c1O` as the compound, how does the Activity [1] read?
**A.** Active

**Q.** And the Activity [2]?
**A.** Active

**Q.** What about the Activity [3] of the same compound?
**A.** inactive
